The record followed here is patent publication US5627017A, “Low melting point ionizable epoxy scavengers for residual magenta couplers” (Eastman Kodak Company, priority 1995, dated 1997).

Data set [1] is described as follows: logP (logarithm of the octanol/water partition coefficient). It counts as physicochemical. The source says: Hydrophobic photographic additives are conveniently incorporated in a hydrophilic colloid layer of a photographic element by dissolving the hydrophobic additive in an organic solvent and then dispersing the organic solution in an aqueous solution to form a homogenized dispersion. […] The low hydrophobicity is essential to achieve efficient post-process migration of these compounds from the adjacent non-imaging layers into the magenta imaging layer. The combination of low hydrophobicity and high melting point makes it difficult to prepare stable dispersions of these compounds by homogenization in an aqueous solution even if relatively large amounts of water-immiscible organic solvent is used to dissolve the compounds. The exemplified compounds are accordingly dispersed in the examples of U.S. Ser. No. 08/255,512 by a solid particle dispersion process. In this method size reduction of the epoxy compound is achieved by attrition with media such as zirconia beads instead of by shearing action on a liquid solution. The solid particle dispersion process is relatively inefficient compared to homogenization and often requires several days of grinding in order to achieve the desired level of size reduction.

Data set [2] can be described thus: Dispersion stability in constant temperature bath at 45 °C. It counts as physicochemical. To be noted: 3.0 g epoxide with 1.0 g tri(2-ethylhexyl) phosphate in gelatin/Alkanol XC, E1 disintegrated with significant settling, SI-4 no evidence of settling or macroscopic coagulation. The protocol: 3.0 grams of E1 was combined with 1.0 gram of the water-immiscible organic solvent tri(2-ethylhexyl) phosphate. The mixture was heated until the oil phase was homogeneous. 26.0 grams of a 12% w/w solution of Type IV gelatin in water was combined with 43.8 grams of water and 4.0 grams of Alkanol XC to constitute the aqueous phase. The aqueous phase was maintained at 70° C. The oil phase was combined with the aqueous phase while stirring. The mixture was then passed twice through the microfluidizer at a pressure of 10,000 psi to obtain the dispersion.
Both dispersions were placed in a constant temperature bath set at 45° C.

A value given as a limit tells only on which side of the number the result lay.

As a reminder, the logP is the decadic logarithm of the partition coefficient of the neutral form, usually between octanol and water. `O=C(CCCCCCCCC1CO1)Oc1ccc(NS(=O)(=O)c2ccc(F)cc2F)cc1` (stereo not shown) [E1]: the logP in data set [1] worked out at 4.5. For the same molecule, the “time at which dispersion disintegrated / showed settling or macroscopic coagulation” value in data set [2] is 6 h.

Consider `O=C(CCCCCCCCC1CO1)Oc1ccc(NS(=O)(=O)c2ccccc2)cc1` (stereo not shown) [SI-4], for which the logP in data set [1] amounted to 4.3. Moreover, the “time at which dispersion disintegrated / showed settling or macroscopic coagulation” value in data set [2] was above 12 h.
